The target in the test is T1, AAK1 (Homo sapiens, UniProt Q2M2I8).
T1 construct: HA; expressed in transfected cells; host or cells: HEK293F
Description: P81 filter plate assay. The class given is biochemical. The settings on record: full-length human AAK1, Mu2 substrate. The procedure: Compounds were serially diluted into a Labcyte LDV plate (Labcyte, cat#LP-0200) using a Mutiprobe (PerkinElmer) and Biomek FX (Beckman Coulter) so that the highest compound concentration was at 96 μM. Compounds were then pinged (75 nL per well) into a Greiner 384-well reaction plate (Greiner, #781076) using an ECHO 550 Liquid Handler (Labcyte). A total of 12 μl reaction buffer (IMAP buffer containing Tween and DTT, from Molecular Devices) was then added to each well of columns 1 and 13 for the negative controls and 12 μl of 2×AAK1 (0.2 nM full-length human protein, NCBI accession no. NP_055726.2) was added to the remaining wells. Enzyme was then pre-incubated with compound for 10 minutes at RT. Reactions were initiated upon Minitrak (PerkinElmer) addition of 12 μl substrate mix containing 2×Mu2 (0.2 μM, full length human protein), 2× cold ATP (2 μM), and 1.3 μCi of hot ^33P-ATP. Reactions proceeded for one hour at RT. Meanwhile, Millipore 384-well P81 filter plates (Millipore, catalog #MZPHNOW10) were placed on a plate washer (Zoom ZW, from Titertek) and pre-wet with 50 μl 1% phosphoric acid. Kinase reactions were then stopped upon addition of 24 μl of 2% phosphoric acid to each well and the Minitrak was then used to transfer 40 μl from each well into the pre-wet Millipore 384-well P81 filter plates. Reaction mixtures were incubated for 10 minutes at RT in the P81 plates, followed by washing five times with 100 μl/well of 1% phosphoric acid using the Zoom filter washer. The bottom of each filter plate was sealed followed by addition of 20 μl Microscint 40 to each well, sealing the top of the plates with Flashplate cover, and then waiting one hour until reading on the TopCount (PerkinElmer).

Structures are written as SMILES.

Results on 27 compounds are retold here after patent US8969565B2, “Imidazo[1,2-b]pyridazine-based compounds, compositions comprising them, and methods of their use” (Lexicon Pharmaceuticals, Inc., priority 2012, dated 2015).

T1 sequence (Q2M2I8 1-863 isoform Q2M2I8-2): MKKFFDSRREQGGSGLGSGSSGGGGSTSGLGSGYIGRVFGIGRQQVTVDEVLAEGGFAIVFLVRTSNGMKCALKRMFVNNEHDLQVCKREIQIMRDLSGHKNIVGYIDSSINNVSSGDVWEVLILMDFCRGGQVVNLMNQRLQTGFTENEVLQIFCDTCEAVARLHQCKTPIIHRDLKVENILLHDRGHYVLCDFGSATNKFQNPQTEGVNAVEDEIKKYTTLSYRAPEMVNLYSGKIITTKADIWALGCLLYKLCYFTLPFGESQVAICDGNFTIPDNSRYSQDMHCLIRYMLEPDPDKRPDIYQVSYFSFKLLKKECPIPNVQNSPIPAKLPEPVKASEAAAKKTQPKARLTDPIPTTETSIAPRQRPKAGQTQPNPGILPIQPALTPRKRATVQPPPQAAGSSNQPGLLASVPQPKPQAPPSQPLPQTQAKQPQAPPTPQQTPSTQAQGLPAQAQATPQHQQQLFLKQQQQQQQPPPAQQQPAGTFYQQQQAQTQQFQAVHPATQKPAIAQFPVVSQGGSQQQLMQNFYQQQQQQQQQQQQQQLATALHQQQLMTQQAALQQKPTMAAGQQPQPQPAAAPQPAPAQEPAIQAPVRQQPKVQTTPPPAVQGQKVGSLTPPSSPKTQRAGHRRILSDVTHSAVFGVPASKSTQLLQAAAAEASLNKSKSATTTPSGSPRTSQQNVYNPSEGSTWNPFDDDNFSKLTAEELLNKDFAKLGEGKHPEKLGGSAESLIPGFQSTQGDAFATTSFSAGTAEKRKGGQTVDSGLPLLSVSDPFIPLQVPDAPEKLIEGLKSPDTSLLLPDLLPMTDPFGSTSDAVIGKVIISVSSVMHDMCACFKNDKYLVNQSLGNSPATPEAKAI

Usually IC50 stands for the concentration at which inhibition is half-maximal. Higher therefore signals weaker potency in that assay. Turning to `CC(C)C[C@H](N)C(=O)N1CCN(c2ccc3ncc(Br)n3n2)CC1` [(S)-2-amino-1-(4-(3-bromoimidazo[1,2-b]pyridazin-6-yl)piperazin-1-yl)-4-methylpentan-1-one], the IC50 is not above 10 nM. With `CC(C)C[C@H](N)C(=O)N1CCN(c2ccc3ncc(Cl)n3n2)CC1` [(S)-2-amino-1-(4-(3-chloroimidazo[1,2-b]pyridazin-6-yl)piperazin-1-yl)-4-methylpentan-1-one] the figure was not above 100 nM; with `CC(C)C[C@H](N)C(=O)N1CCN(c2ccc3nccn3n2)CC1` [(S)-2-amino-1-(4-(imidazo[1,2-b]pyridazin-6-yl)piperazin-1-yl)-4-methylpentan-1-one], not above 1000 nM. The value for `Cc1cnc2ccc(N3CCN(C(=O)[C@@H](N)C(C)C)CC3)nn12` [(S)-2-amino-3-methyl-1-(4-(3-methylimidazo[1,2-b]pyridazin-6-yl)piperazin-1-yl)butan-1-one] was not above 10 nM. With `Cc1cnc2ccc(N3CCN(C(=O)[C@@H](N)CC(C)C)CC3)nn12` [(S)-2-amino-4-methyl-1-(4-(3-methylimidazo[1,2-b]pyridazin-6-yl)piperazin-1-yl)pentan-1-one] the figure was not above 100 nM. With `CN(C(=O)CC1CC1)[C@H]1CCN(c2ccc3ncc(-c4cccnc4O)n3n2)C1` [(S)-2-cyclopropyl-N-(1-(3-(2-hydroxypyridin-3-yl)imidazo[1,2-b]pyridazin-6-yl)pyrrolidin-3-yl)-N-methylacetamide], the IC50 is not above 10 nM. With `COCCOC(=O)N(C)[C@H]1CCN(c2ccc3ncc(-c4cccnc4OC)n3n2)C1` [(S)-2-methoxyethyl (1-(3-(2-methoxypyridin-3-yl)imidazo[1,2-b]pyridazin-6-yl)pyrrolidin-3-yl)(methyl)carbamate] the figure was not above 100 nM; with `CN(C(=O)CC(F)(F)F)[C@H]1CCN(c2ccc3ncc(-c4cccnc4O)n3n2)C1` [(S)-3,3,3-trifluoro-N-(1-(3-(2-hydroxypyridin-3-yl)imidazo[1,2-b]pyridazin-6-yl)pyrrolidin-3-yl)-N-methylpropanamide], not above 10 nM; with `COCCO[C@H]1CCN(c2ccc3ncc(-c4cc(C)cnc4OC)n3n2)C1` [(S)-3-(2-methoxy-5-methylpyridin-3-yl)-6-(3-(2-methoxyethoxy)pyrrolidin-1-yl)imidazo[1,2-b]pyridazine], not above 1000 nM.

For `COCCO[C@H]1CCN(c2ccc3ncc(-c4ccc(C)nc4OC)n3n2)C1` [(S)-3-(2-methoxy-6-methylpyridin-3-yl)-6-(3-(2-methoxyethoxy)pyrrolidin-1-yl)imidazo[1,2-b]pyridazine], the IC50 is not above 100 nM.

`COCCO[C@H]1CCN(c2ccc3ncc(-c4cccnc4OC)n3n2)C1` [(S)-6-(3-(2-methoxyethoxy)pyrrolidin-1-yl)-3-(2-methoxypyridin-3-yl)imidazo[1,2-b]pyridazine] registered an IC50 not above 1000 nM. In the case of `COCC(=O)N(C)[C@H]1CCN(c2ccc3ncc(-c4cccnc4O)n3n2)C1` [(S)-N-(1-(3-(2-hydroxypyridin-3-yl)imidazo[1,2-b]pyridazin-6-yl)pyrrolidin-3-yl)-2-methoxy-N-methylacetamide], the IC50 was not above 1000 nM. The value for `CC(C)CC(=O)N(C)[C@H]1CCN(c2ccc3ncc(-c4cccnc4O)n3n2)C1` [(S)-N-(1-(3-(2-hydroxypyridin-3-yl)imidazo[1,2-b]pyridazin-6-yl)pyrrolidin-3-yl)-N,3-dimethylbutanamide] was not above 100 nM; that for `CCCC(=O)N(C)[C@H]1CCN(c2ccc3ncc(-c4cccnc4O)n3n2)C1` [(S)-N-(1-(3-(2-hydroxypyridin-3-yl)imidazo[1,2-b]pyridazin-6-yl)pyrrolidin-3-yl)-N-methylbutyramide] was not above 100 nM. With `CCCC(=O)N(C)[C@H]1CCN(c2ccc3ncc(-c4cccnc4OC)n3n2)C1` [(S)-N-(1-(3-(2-methoxypyridin-3-yl)imidazo[1,2-b]pyridazin-6-yl)pyrrolidin-3-yl)-N-methylbutyramide] the figure was not above 100 nM; with `CCCC(=O)N(C)[C@H]1CCN(c2ccc3ncc(Br)n3n2)C1` [(S)-N-(1-(3-bromoimidazo[1,2-b]pyridazin-6-yl)pyrrolidin-3-yl)-N-methylbutyramide], not above 1000 nM. The value for `CN(C(=O)N1CCCC1)[C@H]1CCN(c2ccc3ncc(Br)n3n2)C1` [(S)-N-(1-(3-bromoimidazo[1,2-b]pyridazin-6-yl)pyrrolidin-3-yl)-N-methylpyrrolidine-1-carboxamide] was not above 100 nM; that for `CCCC(=O)N(C)[C@H]1CCN(c2ccc3ncc(-c4cccnc4)n3n2)C1` [(S)-N-methyl-N-(1-(3-(pyridin-3-yl)imidazo[1,2-b]pyridazin-6-yl)pyrrolidin-3-yl)butyramide] was not above 1000 nM. `CCCC(=O)N(C)[C@H]1CCN(c2ccc3ncc(-c4ccncc4)n3n2)C1` [(S)-N-methyl-N-(1-(3-(pyridin-4-yl)imidazo[1,2-b]pyridazin-6-yl)pyrrolidin-3-yl)butyramide] displayed an IC50 not above 100 nM. Compound `CN(C(=O)N1CCCC1)[C@H]1CCN(c2ccc3ncc(-c4ccncc4)n3n2)C1` [(S)-N-methyl-N-(1-(3-(pyridin-4-yl)imidazo[1,2-b]pyridazin-6-yl)pyrrolidin-3-yl)pyrrolidine-1-carboxamide] had an IC50 not above 100 nM. With `N#Cc1cnc2ccc(NC[C@@H]3CCCN3C(=O)OC3CCCC3)nn12` [(S)-cyclopentyl 2-(((3-cyanoimidazo[1,2-b]pyridazin-6-yl)amino)methyl)pyrrolidine-1-carboxylate] the figure was not above 10 nM; with `O=C(OCC1CC1)N1CCC[C@H]1CNc1ccc2ncc(-c3ccncc3)n2n1` [(S)-cyclopropylmethyl 2-(((3-(pyridin-4-yl)imidazo[1,2-b]pyridazin-6-yl)amino)methyl)pyrrolidine-1-carboxylate], not above 10 nM; with `O=C(OCC1CC1)N1CCC[C@H]1CNc1ccc2ncc(Br)n2n1` [(S)-cyclopropylmethyl 2-(((3-bromoimidazo[1,2-b]pyridazin-6-yl)amino)methyl)pyrrolidine-1-carboxylate], not above 10 nM. As for `CC(C)OC(=O)N1CCC[C@H]1COc1ccc2ncc(-c3cccnc3O)n2n1` [(S)-isopropyl 2-(((3-(2-hydroxypyridin-3-yl)imidazo[1,2-b]pyridazin-6-yl)oxy)methyl)pyrrolidine-1-carboxylate], the IC50 is not above 100 nM.

On to `COc1ncccc1-c1cnc2ccc(OC[C@@H]3CCCN3C(=O)OC(C)C)nn12` [(S)-isopropyl 2-(((3-(2-methoxypyridin-3-yl)imidazo[1,2-b]pyridazin-6-yl)oxy)methyl)pyrrolidine-1-carboxylate], for which the IC50 is not above 100 nM.

`Cc1ccc(-c2cnc3ccc(N4CC[C@H](N(C)C(=O)OC(C)C)C4)nn23)c(=O)n1C` [(S)-isopropyl (1-(3-(1,6-dimethyl-2-oxo-1,2-dihydropyridin-3-yl)imidazo[1,2-b]pyridazin-6-yl)pyrrolidin-3-yl)(methyl)carbamate]: the IC50 is not above 100 nM. With `CC(C)OC(=O)N(C)[C@H]1CCN(c2ccc3ncc(-c4cccnc4OC(F)F)n3n2)C1` [(S)-isopropyl (1-(3-(2-(difluoromethoxy)pyridin-3-yl)imidazo[1,2-b]pyridazin-6-yl)pyrrolidin-3-yl)(methyl)carbamate] the figure was not above 10 nM.
